In patent US20150175655A1 (priority 2012, published 2015):

target: T1, NS3 genotype 3a protease (UniProt Q81258); experiment: Ki determination, NS3 protease genotype 3a (fluorogenic depsipeptide substrate); type: biochemical, hepatitis C virus; conditions: 200 pM enzyme, 20 μM NS4A peptide, 2 μM substrate, read-out: Ki 3A
T1 construct: Purified NS3 protease domain (amino acids 1-181) of the genotype 1b and 3a virus were generated as above; fused on or other part: N-terminal hexahistidine tag and rTEV protease cleavage site (vector p28-N6H-Tev-NS3(181)3)
T1 sequence (Q81258 1033-1663): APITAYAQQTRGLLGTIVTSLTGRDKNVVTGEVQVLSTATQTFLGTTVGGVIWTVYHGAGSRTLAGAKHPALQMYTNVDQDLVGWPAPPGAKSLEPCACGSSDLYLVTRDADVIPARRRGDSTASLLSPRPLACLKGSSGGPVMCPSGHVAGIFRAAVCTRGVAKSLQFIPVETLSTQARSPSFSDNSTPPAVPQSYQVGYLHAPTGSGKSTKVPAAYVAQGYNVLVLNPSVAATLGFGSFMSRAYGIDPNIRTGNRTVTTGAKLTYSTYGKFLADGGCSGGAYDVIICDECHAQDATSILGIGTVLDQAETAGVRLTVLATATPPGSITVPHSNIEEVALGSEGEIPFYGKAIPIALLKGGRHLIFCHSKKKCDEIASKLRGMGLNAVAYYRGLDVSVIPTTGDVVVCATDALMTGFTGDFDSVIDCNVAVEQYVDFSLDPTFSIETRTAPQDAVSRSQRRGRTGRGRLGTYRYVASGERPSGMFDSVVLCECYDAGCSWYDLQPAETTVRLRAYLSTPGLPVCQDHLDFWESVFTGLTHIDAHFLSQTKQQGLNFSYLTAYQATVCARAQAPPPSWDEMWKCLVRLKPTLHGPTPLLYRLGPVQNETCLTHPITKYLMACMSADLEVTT
Description: The coding sequences for the genotype 3 HCV protease domain was amplified by RT-PCR using a Titan One Tube RT-PCR Kit (Roche, Indianapolis, Ind.) and RNA extracted from HCV-positive human serum (BBI Diagnostics, MA) using a QIAmp UltraSens Virus Kit (Qiagen, Valencia, Calif.). 5′ PCR primers were designed to encode N-terminal hexahistidine tags and to insert in-frame rTEV protease cleavage sites into the NS3 protease coding sequences. The resulting DNA fragments were cloned into pET28 yielding the expression vectors p28-N6H-Tev-NS3(181)1a and p28-N6H-Tev-NS3(181)3, respectively.
BL21AI bacteria (Invitrogen, Carlsbad, Calif.) were transformed with genotype 1b or 3 NS3 expression vectors and used to inoculate a 20 L fermentation vessel (Sartorius BBI System Inc., Bethlehem, Pa.), containing 18 L of fresh 2YT medium supplemented with 50 μg/mL kanamycin. When cell densities reached an OD600 of 1, the temperature of the cultures was reduced from 37° C. to 28° C. and induction was immediately initiated by the addition of 30 μM ZnSO4, 14 mM L-arabinose and 1 mM Isopropyl β-D-thiogalactoside (IPTG) final concentrations. Cells were harvested by centrifugation four hours post-induction and were stored as frozen pellets at −80° C. prior to NS3 protein purification.
Bacterial pellets collected from the expression of genotype 3 HCV NS3 protease were homogenized in Lysis Buffer (25 mM tris, pH 7.5 buffer containing 150 mM NaCl and 1 mM phenylmethanesulfonyl fluoride (PMSF)) and passed through a microfluidizer at 18,000 pounds/in^2. Homogenized cell lysates were centrifuged at 30,000×g for 30 minutes at 4° C. The resulting P1 pellets were washed with Wash Buffer I (25 mM tris, pH 7.5 containing 1% CHAPS) followed by centrifugation at 10,000×g for 30 minutes at 4° C. […] The resulting P3 pellets were resuspended in Solubilization Buffer (20 ml of 25 mM tris, pH 7.5 containing 150 mM NaCl and 8 M urea) and incubated at 4° C. for one hour. Solubilized proteins were passed through a 0.45 micron filter. Protein concentrations were measured and the solutions were adjusted to 40 mM DTT, incubated for 30 minutes at 4° C. and then quickly diluted into Refolding Buffer (25 mM tris, pH 8.5, 0.8 M Guanidine-HCl, 0.4 M L-Arginine, 10 mM ZnSO4) while stirring. Protein solutions were incubated at 4° C. overnight to allow refolding. Refolded proteases were centrifuged at 30,000×g for 10 minutes to remove residual precipitates. Final protein concentrations were then measured and the NS3 proteases were aliquoted, snap frozen in liquid nitrogen and stored at −80° C.
Purified NS3 protease domain (amino acids 1-181) of the genotype 1b and 3a virus were generated as above. The internally quenched fluorogenic depsipeptide substrate Ac-DED(Edans)-EEAbuψ[COO]ASK(Dabcyl)-NH2 and a synthetic peptide containing the hydrophobic core residues of the NS4A protein cofactor ([…]; NS4A peptide) were obtained from Anaspec, Inc. (San Jose, Calif.). Other chemicals and biochemicals were of reagent grade or better and were purchased from standard suppliers.
Reactions were run at room temperature in buffer consisting of 50 mM HEPES, 40% glycerol, 0.05% Triton X-100, 10 mM DTT, and 10% DMSO. The final assay solutions contained 50 pM NS3 genotype 1b protease or 200 pM genotype 3a protease, 20 μM NS4A peptide, and 4 μM substrate (genotype 1 b) or 2 μM substrate (genotype 3a). Inhibitor concentrations varied from 100 nM to 5 pM in 3-fold dilutions, and no-inhibitor controls were included.
Compound dilutions were made in DMSO at 20× final concentration. Reaction mixtures were prepared in 96-well assay plates. A solution of enzyme and NS4A peptide in assay buffer (25 μL volume with both reagents at 4× final concentration) was mixed with 45 μL assay buffer and 5 μL of either inhibitor or DMSO, and pre-incubated at room temperature for 1 hour. The reaction was started by addition of 25 μL substrate solution at 4× final concentration. […]

Point of comparison: CC[C@@H]1[C@@H]2CN(C(=O)[C@H](C(C)(C)C)NC(=O)O[C@@H]3C[C@H]3CCCCC(F)(F)c3nc4ccc(OC)cc4nc3O2)[C@@H]1C(=O)N[C@]1(C(=O)NS(=O)(=O)C2CC2)C[C@H]1CC [Example 34, (1aR,5S,8S,9S,10R,22aR)-5-tert-butyl-N-{(1R,2R)-1-[(cyclopropylsulfonyl)carbamoyl]-2-ethylcyclopropyl}-9-ethyl-18,18-difluoro-14-methoxy-3,6-dioxo-1,1a,3,4,5,6,9,10,18,19,20,21,22,22a-tetradecahydro-8H-7,10-methanocyclopropa[18,19][1,10,3,6]dioxadiazacyclononadecino[11,12-b]quinoxaline-8-carboxamide], Ki 0.28 nM. Against it:
- CC[C@@H]1[C@@H]2CN(C(=O)[C@H](C(C)(C)C)NC(=O)O[C@@H]3C[C@@H]4C[C@@H]4[C@H]3CCCCC(F)(F)c3nc4ccc(OC)cc4nc3O2)[C@@H]1C(=O)N[C@]1(C(=O)NS(=O)(=O)C2(C)CC2)C[C@H]1C(F)F [Example 61, (1aS,2aR,6S,9S,10S,11R,23aR,23bS)-6-tert-butyl-N-[(1R,2R)-2-(difluoromethyl)-1-{[(1-methylcyclopropyl)sulfonyl]carbamoyl}cyclopropyl]-10-ethyl-19,19-difluoro-15-methoxy-4,7-dioxo-1a,2,2a,4,5,6,7,10,11,19,20,21,22,23,23a,23b-hexadecahydro-1H,9H-8,11-methanocyclopropa[4′,5′]cyclopenta[1′,2′:18,19][1,10,3,6]dioxadiazacyclononade cino[11,12-b]quinoxaline-9-carboxamide] — 3.1-fold lower, 0.09 nM
- CC[C@@H]1[C@@H]2CN(C(=O)[C@H](C(C)(C)C)NC(=O)O[C@]3(C)CCC[C@H]3CCCCCc3nc4ccc(OC)cc4nc3O2)[C@@H]1C(=O)N[C@]1(C(=O)NS(=O)(=O)C2(C)CC2)C[C@H]1CC [Example 56, (3aR,7S,10S,11S,12R,24aR)-7-tert-butyl-11-ethyl-N-[(1R,2R)-2-ethyl-1-{[(1-methylcyclopropyl)sulfonyl]carbamoyl}cyclopropyl]-16-methoxy-3a-methyl-5,8-dioxo-1,2,3,3a,5,6,7,8,11,12,20,21,22,23,24,24a-hexadecahydro-10H-9,12-methanocyclopenta[18,19][1,10,3,6]dioxadiazacyclononadecino[11,12-b]quinoxaline-10-carboxamide] — 3.6-fold higher, 1 nM
- CC[C@@H]1[C@@H]2CN(C(=O)[C@H](C(C)(C)C)NC(=O)O[C@@]3(C)C[C@@H]3CCCCC(F)(F)c3nc4ccc(OC)cc4nc3O2)[C@@H]1C(=O)N[C@]1(C(=O)NS(=O)(=O)C2(C)CC2)C[C@H]1C(F)F [Example 64, (1aS,5S,8S,9S,10R,22aS)-5-tert-butyl-N-[(1R,2R)-2-(difluoromethyl)-1-{[(1-methylcyclopropyl)sulfonyl]carbamoyl}cyclopropyl]-9-ethyl-18,18-difluoro-14-methoxy-1a-methyl-3,6-dioxo-1,1a,3,4,5,6,9,10,18,19,20,21,22,22a-tetradecahydro-8H-7,10-methanocyclopropa[18,19][1,10,3,6]dioxadiazacyclononadecino[11,12-b]quinoxaline-8-carboxamide] — 4.3-fold higher, 1.2 nM
- CC[C@@H]1[C@@H]2CN(C(=O)[C@H](C(C)(C)C)NC(=O)O[C@]3(C)CCC[C@H]3CCCCCc3nc4ccc(OC)cc4nc3O2)[C@@H]1C(=O)N[C@]1(C(=O)NS(=O)(=O)C2CC2)C[C@H]1CC [Example 51] — 3-fold higher, 0.84 nM
- CC[C@@H]1[C@@H]2CN(C(=O)[C@H](C(C)(C)C)NC(=O)O[C@]3(C)CCC[C@H]3CCCCCc3nc4ccc(OC)cc4nc3O2)[C@@H]1C(=O)N[C@]1(C(=O)NS(=O)(=O)C2CC2)C[C@H]1C(F)F [Example 40, (3aR,7S,10S,11S,12R,24aR)-7-tert-butyl-N-[(1R,2R)-1-[(cyclopropylsulfonyl)carbamoyl]-2-(difluoromethyl)cyclopropyl]-11-ethyl-16-methoxy-3a-methyl-5,8-dioxo-1,2,3,3a,5,6,7,8,11,12,20,21,22,23,24,24a-hexadecahydro-10H-9,12-methanocyclopenta[18,19][1,10,3,6]dioxadiazacyclononadecino[11,12-b]quinoxaline-10-carboxamide] — 1.6-fold lower, 0.18 nM
- CC[C@@H]1[C@@H]2CN(C(=O)[C@H](C(C)(C)C)NC(=O)O[C@@H]3C[C@H]3CCCCCc3nc4ccc(OC)cc4nc3O2)[C@@H]1C(=O)N[C@]1(C(=O)NS(=O)(=O)C2(C)CC2)C[C@H]1CC [Example 4, (1aR,5S,8S,9S,10R,22aR)-5-tert-butyl-9-ethyl-N-[(1R,2R)-2-ethyl-1-{[(1-methylcyclopropyl)sulfonyl]carbamoyl}cyclopropyl]-14-methoxy-3,6-dioxo-1,1a,3,4,5,6,9,10,18,19,20,21,22,22a-tetradecahydro-8H-7,10-methanocyclopropa[18,19][1,10,3,6]dioxadiazacyclononadecino[11,12-b]quinoxaline-8-carboxamide] — 2-fold higher, 0.56 nM

same assay, conditions: read-out: Ki 3A, 200 pM enzyme, 20 μM NS4A peptide, 2 μM substrate

Point of comparison: C=C[C@@H]1C[C@]1(NC(=O)[C@@H]1[C@H](C)[C@@H]2CN1C(=O)[C@H](C(C)(C)C)NC(=O)O[C@@H]1C[C@H]1CCCCCc1nc3ccc(OC)cc3nc1O2)C(=O)NS(=O)(=O)C1CC1 [Example 48, (1aR,5S,8S,9S,10R,22aR)-5-tert-butyl-N-{(1R,2S)-1-[(cyclopropylsulfonyl)carbamoyl]-2-ethenylcyclopropyl}-14-methoxy-9-methyl-3,6-dioxo-1,1a,3,4,5,6,9,10,18,19,20,21,22,22a-tetradecahydro-8H-7,10-methanocyclopropa[18,19][1,10,3,6]dioxadiazacyclononadecino[11,12-b]quinoxaline-8-carboxamide], Ki 0.09 nM. Against it:
- CC[C@@H]1C[C@]1(NC(=O)[C@@H]1[C@H](C)[C@@H]2CN1C(=O)[C@H](C(C)(C)C)NC(=O)O[C@@H]1C[C@H]1CCCCCc1nc3ccc(OC)cc3nc1O2)C(=O)NS(=O)(=O)C1(C)CC1 [Example 21, (1aR,5S,8S,9S,10R,22aR)-5-tert-butyl-N-[(1R,2R)-2-ethyl-1-{[(1-methylcyclopropyl)sulfonyl]carbamoyl}cyclopropyl]-14-methoxy-9-methyl-3,6-dioxo-1,1a,3,4,5,6,9,10,18,19,20,21,22,22a-tetradecahydro-8H-7,10-methanocyclopropa[18,19][1,10,3,6]dioxadiazacyclononadecino[11,12-b]quinoxaline-8-carboxamide] — 5-fold higher, 0.45 nM
